The OligoGym collection
These antisense oligonucleotides have a phosphorothioate backbone; sugars and methylation of C are not fully specified.

Assays:
Settings in all cases: ASO
[1] = molecular target: MAP2K6
[2] = molecular target: PCK2
[3] = molecular target: RHOC
[4] = molecular target: INPPL1
Also: test concentration or dose not given here.

AAGAGAGGATTCAGGGAAGC showed a remaining target (mRNA or protein) (fraction of control) [1] of at least 1.
In the case of AAGATGTTAGTTAATATCAA, the remaining target (mRNA or protein) (fraction of control) [2] is reported as at least 1.
In the case of AATGCCAGTGGGAAGCTGGC, the remaining target (mRNA or protein) (fraction of control) [2] is reported as 0.88.
With AATTTTAAGGCCAGGGTTTC the remaining target (mRNA or protein) (fraction of control) [1] was at least 1.
In the case of ACACATGGCAGGAGGGACAA, the remaining target (mRNA or protein) (fraction of control) [1] is reported as 0.78.
Work on ACCAGGCGGGAGTGGTACCG yielded a remaining target (mRNA or protein) (fraction of control) [2] of 0.84.
ACTCAAGGTAGCCAAAGG showed a remaining target (mRNA or protein) (fraction of control) [3] of 0.67.
ACTCTGGGTCCCTACTGC showed a remaining target (mRNA or protein) (fraction of control) [3] of 0.8.
For AGACACTTTCCTGTGAGC, the remaining target (mRNA or protein) (fraction of control) [3] was 0.31.
In the case of AGACTAGGCCTCAGGTCACA, the remaining target (mRNA or protein) (fraction of control) [2] is reported as at least 1.
With AGGAACCGAGCGGAGCCGGG the remaining target (mRNA or protein) (fraction of control) [2] was 0.68.
AGGCACCATCCCCAACGA was tested, and the remaining target (mRNA or protein) (fraction of control) [3] was 0.19.
AGGGCAGGGCATAGGCGT was tested, and the remaining target (mRNA or protein) (fraction of control) [3] was 0.69.
AGGTCTTCCCACAGGCAC gave a remaining target (mRNA or protein) (fraction of control) [3] of 0.6.
AGTACACGCCACCATCACTG showed a remaining target (mRNA or protein) (fraction of control) [2] of 0.91.
Sequence AGTTCTCAAAGACAGTAG has a remaining target (mRNA or protein) (fraction of control) [3] of 0.62.
ATGAGGAGGCAGGTCTTC gave a remaining target (mRNA or protein) (fraction of control) [3] of 0.59.
CACCGTCTTGCTCTCTACTC was tested, and the remaining target (mRNA or protein) (fraction of control) [2] was 0.85.
CACTTGACAAAGTCACCATC gave a remaining target (mRNA or protein) (fraction of control) [2] of at least 1.
With CACTTTCCTGTGAGCCAG the remaining target (mRNA or protein) (fraction of control) [3] was 0.18.
In the case of CAGACCGAACGGGCTCCT, the remaining target (mRNA or protein) (fraction of control) [3] is reported as 0.35.
For CATGAGGAAGGGCAGGGC, the remaining target (mRNA or protein) (fraction of control) [3] was at least 1.
CCAGTCGGGTCATAATACGC gave a remaining target (mRNA or protein) (fraction of control) [2] of 0.74.
CCCACAAACACCCCATGACG was tested, and the remaining target (mRNA or protein) (fraction of control) [2] was 0.35.
For CCCCTCCGACGCTTGTTC, the remaining target (mRNA or protein) (fraction of control) [3] was 0.34.
CCGGCTGAAGTTCCCAGG showed a remaining target (mRNA or protein) (fraction of control) [3] of 0.58.
With CCGGGCCAGCCGAGAGGCGA the remaining target (mRNA or protein) (fraction of control) [2] was at least 1.
CCTGTGAGCCAGAAGTGT was tested, and the remaining target (mRNA or protein) (fraction of control) [3] was 0.31.
In the case of CTCAAACACCTCCCGCAC, the remaining target (mRNA or protein) (fraction of control) [3] is reported as 0.66.
Sequence CTCCCGCACTCCCTCCTT has a remaining target (mRNA or protein) (fraction of control) [3] of 0.09.
CTCCTGGTGTGCTCGTCT showed a remaining target (mRNA or protein) (fraction of control) [3] of 0.33.
Work on CTGCATGCAGCCTGGAAACC yielded a remaining target (mRNA or protein) (fraction of control) [2] of 0.83.
Sequence CTTGCCCAGCAGGGAGTTGC has a remaining target (mRNA or protein) (fraction of control) [2] of at least 1.
Sequence CTTGTTCTTGCGGACCTG has a remaining target (mRNA or protein) (fraction of control) [3] of 0.28.
CTTTGTGTTCTGCTGCAGCA showed a remaining target (mRNA or protein) (fraction of control) [2] of 0.49.
For GAAAATGGAGCCTTCAGT, the remaining target (mRNA or protein) (fraction of control) [3] was 0.76.
With GAGCATTCTCCCCAAAGCCT the remaining target (mRNA or protein) (fraction of control) [2] was 0.95.
In the case of GAGCCTTCAGTATGGAGC, the remaining target (mRNA or protein) (fraction of control) [3] is reported as 0.37.
GAGCTGAGATGAAGTCAA gave a remaining target (mRNA or protein) (fraction of control) [3] of 0.71.
GAGCTGCACCCCGATGCGGG gave a remaining target (mRNA or protein) (fraction of control) [2] of at least 1.
GCAGGAGGGAACTGAAAA was tested, and the remaining target (mRNA or protein) (fraction of control) [3] was 0.73.
Sequence GCGTTGGGATTGGTGGTGGC has a remaining target (mRNA or protein) (fraction of control) [2] of 0.82.
GCTACGGCATGATGGCCAGC was tested, and the remaining target (mRNA or protein) (fraction of control) [2] was 0.89.
GCTGAAGTTCCCAGGCTG showed a remaining target (mRNA or protein) (fraction of control) [3] of 0.75.
GGAACTGAAAATGGAGCC gave a remaining target (mRNA or protein) (fraction of control) [3] of 0.98.
GGAAGGGCAGGGCATAGG showed a remaining target (mRNA or protein) (fraction of control) [3] of 0.79.
Work on GGACAGTCTTTGTGGGAAGG yielded a remaining target (mRNA or protein) (fraction of control) [2] of at least 1.
Sequence GGAGATGAACTGGGAGGT has a remaining target (mRNA or protein) (fraction of control) [4] of 0.48.
For GGAGGGAACTGAAAATGG, the remaining target (mRNA or protein) (fraction of control) [3] was 0.87.
In the case of GGATGCGGTCGTGCGTGA, the remaining target (mRNA or protein) (fraction of control) [4] is reported as 0.86.
Work on GGCACCATCCCCAACGAT yielded a remaining target (mRNA or protein) (fraction of control) [3] of 0.19.
GGCACTAGGGAAGGCGGCTG was tested, and the remaining target (mRNA or protein) (fraction of control) [2] was 0.84.
Work on GGCAGATCCTGGTTGACCTG yielded a remaining target (mRNA or protein) (fraction of control) [2] of 0.81.
For GGCCATCTCAAACACCTC, the remaining target (mRNA or protein) (fraction of control) [3] was 0.36.
GGCCCGGAGTCGACCTTCAC gave a remaining target (mRNA or protein) (fraction of control) [2] of 0.68.
GGCGGTACAATGCGGCCATG was tested, and the remaining target (mRNA or protein) (fraction of control) [2] was 0.81.
With GGGCCTCCCAGGCTGGGTCC the remaining target (mRNA or protein) (fraction of control) [2] was at least 1.
GGTCCTTCTCCTTCTCAA gave a remaining target (mRNA or protein) (fraction of control) [4] of 0.52.
GGTGATGCCCAGGATCAGCA gave a remaining target (mRNA or protein) (fraction of control) [2] of 0.78.
GTAGTGCCCGAAGTTGTAGC was tested, and the remaining target (mRNA or protein) (fraction of control) [2] was 0.77.
Sequence GTATGGAGCCCTCAGGAG has a remaining target (mRNA or protein) (fraction of control) [3] of 0.4.
For GTGCCTATGAAGACTGAG, the remaining target (mRNA or protein) (fraction of control) [4] was 0.4.
In the case of GTGGCAGATGGGACAGGG, the remaining target (mRNA or protein) (fraction of control) [4] is reported as at least 1.
For GTGTGCTCGTCTTGCCTC, the remaining target (mRNA or protein) (fraction of control) [3] was 0.33.
With TAAAGTGCTGGTGTGTGA the remaining target (mRNA or protein) (fraction of control) [3] was 0.61.
In the case of TCAAAGACAGTAGGGACG, the remaining target (mRNA or protein) (fraction of control) [3] is reported as at least 1.
Sequence TCACATTTTGTGCACACGTC has a remaining target (mRNA or protein) (fraction of control) [2] of 0.76.
With TCACGAACCTCCTGTTCCCA the remaining target (mRNA or protein) (fraction of control) [2] was 0.6.
For TCACGCCGGAACCAGTTGAC, the remaining target (mRNA or protein) (fraction of control) [2] was at least 1.
With TCCAAGTCCTCCTCGGTG the remaining target (mRNA or protein) (fraction of control) [4] was at least 1.
Sequence TCCAGCCTGGCAGTGCAGGC has a remaining target (mRNA or protein) (fraction of control) [2] of 0.75.
TCCAGGCAGGTAGAGTAG gave a remaining target (mRNA or protein) (fraction of control) [4] of at least 1.
For TCCATCACAGATGTGGATGC, the remaining target (mRNA or protein) (fraction of control) [2] was 0.87.
TCCCACAGGCACCATCCC was tested, and the remaining target (mRNA or protein) (fraction of control) [3] was 0.3.
For TCCCCACTGCCCACTTCC, the remaining target (mRNA or protein) (fraction of control) [4] was at least 1.
TCCCTCCCCAGACCCACA gave a remaining target (mRNA or protein) (fraction of control) [4] of at least 1.
TCCGTCCTGAGCCTAAAA was tested, and the remaining target (mRNA or protein) (fraction of control) [4] was 0.7.
With TCGGATGAGGCCCTGCTGCT the remaining target (mRNA or protein) (fraction of control) [2] was 0.86.
With TCGTCTTGCCTCAGGTCC the remaining target (mRNA or protein) (fraction of control) [3] was 0.21.
In the case of TCTGTGACTTCCCAATCT, the remaining target (mRNA or protein) (fraction of control) [4] is reported as 0.93.
For TGAGGCCGCTGAGATCCAAG, the remaining target (mRNA or protein) (fraction of control) [2] was 0.67.
TGATCTCCCGCTGGTCGGGC gave a remaining target (mRNA or protein) (fraction of control) [2] of 0.73.
Work on TGCAGAAACAACTCCAGG yielded a remaining target (mRNA or protein) (fraction of control) [3] of at least 1.
In the case of TGCCCCACCCCAACCAAC, the remaining target (mRNA or protein) (fraction of control) [4] is reported as at least 1.
Work on TGCCTTCCCTATTCCCAGAT yielded a remaining target (mRNA or protein) (fraction of control) [2] of 0.82.
TGCGGCCATGGCACCTGGGC was tested, and the remaining target (mRNA or protein) (fraction of control) [2] was 0.55.
Work on TGCGGCTGGCTGTCTTCA yielded a remaining target (mRNA or protein) (fraction of control) [4] of 0.85.
TGCTCCTGCCTCATCCTT gave a remaining target (mRNA or protein) (fraction of control) [4] of 0.54.
TGGGTGTCTCTCGGGCACTG was tested, and the remaining target (mRNA or protein) (fraction of control) [2] was 0.9.
With TGTGCCTCCAGACTCCTC the remaining target (mRNA or protein) (fraction of control) [4] was 0.59.
In the case of TGTTTTCCAGGCTGTCAG, the remaining target (mRNA or protein) (fraction of control) [3] is reported as 0.41.
For TTAAAATAGATAAGCATCTC, the remaining target (mRNA or protein) (fraction of control) [2] was at least 1.
TTCCTCAGACCGAACGGG gave a remaining target (mRNA or protein) (fraction of control) [3] of 0.43.
TTCCTGTGAGCCAGAAGT was tested, and the remaining target (mRNA or protein) (fraction of control) [3] was 0.31.
With TTCTCAAAGACAGTAGGG the remaining target (mRNA or protein) (fraction of control) [3] was 0.98.
In the case of TTGCACGGCCACTGGCTCAC, the remaining target (mRNA or protein) (fraction of control) [2] is reported as 0.94.
TTGCGGCTCCCTGACCTG showed a remaining target (mRNA or protein) (fraction of control) [4] of at least 1.
TTGCTGAAGACGATGAGG showed a remaining target (mRNA or protein) (fraction of control) [3] of 0.77.
For TTTCCAGGGTTTGCCCAGCC, the remaining target (mRNA or protein) (fraction of control) [2] was 0.55.
